pIC50: −log10 of the molar value. Strand notation (5' to 3'): a small letter for the sugar, then the base; units joined by * are phosphorothioate-linked, units joined directly phosphodiester-linked; [ ] holds rarer units or linkages, { } end groups; capitals alone tell only the bases. e = 2'-O-(2-methoxyethyl) (MOE); k = constrained ethyl (cEt); [5mC] = 5-methylcytosine; d = 2'-deoxy (DNA)
Experiments:
Format in all cases: cell-based
human PKK mRNA [1] = assay: Antisense inhibition of human PKK mRNA in HepaRG cells, 1,000 nM, MOE/deoxy/cEt oligonucleotides (Example 3); details: HepaRG cells, electroporation with 1,000 nM antisense oligonucleotide, PKK mRNA by RT-PCR (RTS3454), relative to untreated control cells
Procedure, shortened: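 HepaRG cells at 20,000 per well electroporated with 1,000 nM 16-mer MOE/cEt/deoxy gapmers (phosphorothioate, 5-methylcytosine). After about 24 h, PKK mRNA measured by qRT-PCR with primer probe set RTS3454, normalized to RIBOGREEN total RNA. Reported as percent inhibition versus untreated cells.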

human PKK mRNA [2] = assay: Dose-dependent antisense inhibition of human PKK in HepaRG cells, 0.11-3.00 uM (Example 6)
Description: Cells were plated at a density of 20,000 cells per well and transfected using electroporation with 0.11 μM, 0.33 μM, 1.00 μM, and 3.00 μM concentrations of antisense oligonucleotide. After a treatment period of approximately 16 hours, RNA was isolated from the cells and PKK mRNA levels were measured by quantitative real-time PCR. Human PKK primer probe set RTS3454 was used to measure mRNA levels. PKK mRNA levels were adjusted according to total RNA content, as measured by RIBOGREEN®. The antisense oligonucleotides were tested in a series of experiments that had similar culture conditions.
The half maximal inhibitory concentration (IC50) of each oligonucleotide is also presented.

human PKK mRNA [3] = assay: Antisense inhibition of human PKK mRNA in HepaRG cells, 5,000 nM (Example 2); details: human PKK mRNA, HepaRG cells, 5,000 nM antisense oligonucleotide, Table 18
Procedure, shortened: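 HepaRG cells, 20,000 per well, were electroporated with 5,000 nM MOE gapmer (phosphorothioate, 5-methylcytosine) and incubated about 24 hours. PKK mRNA was quantified by qRT-PCR with primer probe set RTS3454, normalized to RIBOGREEN total RNA, and expressed as percent inhibition versus untreated controls.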

human PKK mRNA [4] = assay: Dose-dependent antisense inhibition of human PKK in HepaRG cells, 0.19-5.00 uM (Example 5)
Procedure, shortened: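 HepaRG cells (20,000/well) were electroporated with antisense oligonucleotide at 0.19, 0.56, 1.67 and 5.00 μM and treated for about 16 hours. PKK mRNA was quantified by qRT-PCR with primer probe set RTS3454, normalised to RIBOGREEN total RNA, and IC50 was derived per oligonucleotide.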

[5] = HepaRG cells, electroporation, approximately 16 hours, Table 37
[6] = HepaRG cells, electroporation, approximately 16 hours, Table 40
[7] = 4 point dose response, HepaRG cells, Table 40
[8] = HepaRG cells, electroporation, approximately 16 hours, Table 39
[9] = Table 34, HepaRG, electroporation, ~16 h
[10] = HepaRG cells, electroporation, approximately 16 hours, Table 36

Substance: 547849 (antisense eA*eA*kT*dG*dT*d[5mC]*dT*d[5mC]*dG*dA*dT*dG*dG*k[5mC]*kA*eA) [compound 547849]
- % inhibition (human PKK mRNA [1]; Table 20, approximately 24 hours): 79%
- % inhibition (human PKK mRNA [1]; Table 22 experiment, approx. 24 hours): 90%
- pIC50 (human PKK mRNA [2]; 0.11-3.00 μM): 6.52
- percent inhibition of PKK mRNA, 0.11 μM (human PKK mRNA [2]; electroporation, 0.11 μM, approx. 16 hours, relative to untreated control cells): 36%
- percent inhibition of PKK mRNA, 0.33 μM (human PKK mRNA [2]; electroporation, 0.33 μM, approx. 16 hours, relative to untreated control cells): 52%
- percent inhibition of PKK mRNA, 1.00 μM (human PKK mRNA [2]; electroporation, 1.00 μM, approx. 16 hours, relative to untreated control cells): 67%

Substance: 548752 (antisense e[5mC]*eA*e[5mC]*eT*dG*dT*dA*d[5mC]*dT*dA*dG*dT*dT*dT*e[5mC]*e[5mC]*eT*eA) [compound 548752]
- % inhibition (human PKK mRNA [3]): 89%
- percent inhibition of PKK at 0.19 μM (human PKK mRNA [4]; [5]): 0%
- percent inhibition of PKK at 0.56 μM (human PKK mRNA [4]; [5]): 0%
- percent inhibition of PKK at 1.67 μM (human PKK mRNA [4]; [5]): 51%
- percent inhibition of PKK at 5.00 μM (human PKK mRNA [4]; [5]): 90%
- pIC50 (human PKK mRNA [4]; 4 point dose response, HepaRG cells, Table 37): 5.72

Substance: 548753 (antisense eT*e[5mC]*eA*e[5mC]*dT*dG*dT*dA*d[5mC]*dT*dA*dG*dT*dT*eT*e[5mC]*e[5mC]*eT) [compound 548753]
- % inhibition (human PKK mRNA [3]): 82%
- percent inhibition of PKK at 0.19 μM (human PKK mRNA [4]; [6]): 0%
- percent inhibition of PKK at 0.56 μM (human PKK mRNA [4]; [6]): 23%
- percent inhibition of PKK at 1.67 μM (human PKK mRNA [4]; [6]): 49%
- percent inhibition of PKK at 5.00 μM (human PKK mRNA [4]; [6]): 84%
- pIC50 (human PKK mRNA [4]; [7]): 5.82

Substance: 548756 (antisense eG*eT*eA*eT*d[5mC]*dA*d[5mC]*dT*dG*dT*dA*d[5mC]*dT*eA*eG*eT*eT) [compound 548756]
- % inhibition (human PKK mRNA [3]): 81%
- percent inhibition of PKK at 0.19 μM (human PKK mRNA [4]; [6]): 0%
- percent inhibition of PKK at 0.56 μM (human PKK mRNA [4]; [6]): 4%
- percent inhibition of PKK at 1.67 μM (human PKK mRNA [4]; [6]): 16%
- percent inhibition of PKK at 5.00 μM (human PKK mRNA [4]; [6]): 86%
- pIC50 (human PKK mRNA [4]; [7]): < 5.30

Substance: 548757 (antisense eA*eG*eT*eA*dT*d[5mC]*dA*d[5mC]*dT*dG*dT*dA*d[5mC]*eT*eA*eG*eT) [compound 548757]
- % inhibition (human PKK mRNA [3]): 87%
- percent inhibition of PKK at 0.19 μM (human PKK mRNA [4]; [8]): 18%
- percent inhibition of PKK at 0.56 μM (human PKK mRNA [4]; [8]): 49%
- percent inhibition of PKK at 1.67 μM (human PKK mRNA [4]; [8]): 82%
- percent inhibition of PKK at 5.00 μM (human PKK mRNA [4]; [8]): 93%
- pIC50 (human PKK mRNA [4]; 4 point dose response, HepaRG cells, Table 39): 6.22

Substance: 548758 (antisense e[5mC]*eA*eG*eT*dA*dT*d[5mC]*dA*d[5mC]*dT*dG*dT*dA*e[5mC]*eT*eA*eG) [compound 548758]
- % inhibition (human PKK mRNA [3]): 97%
- percent inhibition of PKK at 0.19 0μM (human PKK mRNA [4]; 0.19 0μM, HepaRG cells, electroporation, approximately 16 hours, Table 41): 0%
- percent inhibition of PKK at 0.56 0μM (human PKK mRNA [4]; 0.56 0μM, HepaRG cells, electroporation, approximately 16 hours, Table 41): 72%
- percent inhibition of PKK at 1.67 1μM (human PKK mRNA [4]; 1.67 1μM, HepaRG cells, electroporation, approximately 16 hours, Table 41): 79%
- pIC50 (human PKK mRNA [4]; 4 point dose response, HepaRG cells, Table 41): 6.22
- percent inhibition of PKK at 0.19 μM (human PKK mRNA [4]; [9]): 41%
- percent inhibition of PKK at 0.56 μM (human PKK mRNA [4]; [9]): 47%
- percent inhibition of PKK at 1.67 μM (human PKK mRNA [4]; [9]): 82%
- percent inhibition of PKK at 5.00 μM (human PKK mRNA [4]; [9]): 94%
- pIC50 (human PKK mRNA [4]; Table 34, PKK mRNA, HepaRG, electroporation, ~16 h): 6.40

Substance: 548770 (antisense eT*eA*eA*e[5mC]*dA*dG*dT*dA*dT*d[5mC]*dA*d[5mC]*dT*eG*eT*e[5mC]*e[5mC]) [compound 548770]
- % inhibition (human PKK mRNA [3]): 92%
- percent inhibition of PKK at 0.19 μM (human PKK mRNA [4]; [10]): 26%
- percent inhibition of PKK at 0.56 μM (human PKK mRNA [4]; [10]): 54%
- percent inhibition of PKK at 1.67 μM (human PKK mRNA [4]; [10]): 77%
- percent inhibition of PKK at 5.00 μM (human PKK mRNA [4]; [10]): 91%
- pIC50 (human PKK mRNA [4]; 4 point dose response, HepaRG cells, Table 36): 6.30
- percent inhibition of PKK mRNA, 0.19 μM (human PKK mRNA [4]; HepaRG cells, 0.19 μM antisense oligonucleotide): 9%
- percent inhibition of PKK mRNA, 0.56 μM (human PKK mRNA [4]; HepaRG cells, 0.56 μM antisense oligonucleotide): 0%
- percent inhibition of PKK mRNA, 1.67 μM (human PKK mRNA [4]; HepaRG cells, 1.67 μM antisense oligonucleotide): 61%
- percent inhibition of PKK mRNA, 5.00 μM (human PKK mRNA [4]; HepaRG cells, 5.00 μM antisense oligonucleotide): 92%
- pIC50 (human PKK mRNA [4]; HepaRG cells, 0.19-5.00 μM): 5.77
